The results in this text go back to patent US20090270447A1, “2-Aryl-and 2-Heteroarylthiazolyl Compounds, Methods for Their Preparation and Use Thereof” (Wyeth, priority 2008, published 2009).

Data set [1] relates to securin "knock out" cells D8 (Securin−/−). Kind of data set: Growth inhibition of securin knock out cells D8 (SRB, 5 days). Format: cell-based. The note with it: for IC50: 120 h, securin knock out D8 cells, 5 days, SRB; for Selectivity Ratio D8: IC50 HCT116 / IC50 securin KO D8. On the procedure:
(§1) IC50 analysis was performed for selected fused heterobicyclic 2-aryl or 2-heteroarylthiazolyl compounds that were tested on HCT116 cells and Securin “knock out” cell lines.
(§2) Cell Culture—HCT116 and securin “knock out” cells. HCT116 and securin “knock out” cells (D8 and F3) were grown in RPMI+5% fetal bovine serum and gentamycin. They were maintained in a humidified 37° C. incubator with 5% CO2. Since the securin “knock out” cells have active chromosomal instability, cells were used at a low passage number of 2-13 passages. At or before passage 13 a new vial of cells was thawed and used for the screen. Cell seeding—HCT116 cells and securin “knock out” cells were trypsinized and suspenended in RPMI+5% FBS at a density of 27,000 cells/mL. HCT116 and securin “knock out” cells were seeded separately in wells of a 96-well plate (Falcon Cat # 35-3872) at a cell density of 4000 cells per well. Cells were seeded in 150 μL of RPMI media containing 5% FBS and gentamycin. Cell seeding was performed under aseptic conditions. Cells were allowed to attach and grow overnight in a humidified 37° C. incubator.
(§3) Compound Dilution and Dispensation. A series of stock solutions, 10 mg/ml of 2-aryl- or 2-heteroarylthiazolyl compounds to be tested, were brought to room temperature. The compounds were diluted 1:50 in RPMI+5% FBS (Highest concentration 200 μg/mL). The compounds were then serially diluted 1:3 across a deep-well titration plate resulting in final concentrations in the plate of 200, 66.7, 22.2, 7.4, 2.4, 0.8 0.27, 0.091, 0.03, 0.01, and 0.0034 μg/mL with one well left without a compound. 50 μL of this dilution series was added to the 150 μL of cells to result in a final concentration of compound in with the cells of 50, 16.6, 5.5, 1.8, 0.6, 0.2, 0.068, 0.023, 0.0076, 0.0025, and 0.00084 μg/mL. The dilution and addition of compounds to the plates is performed using a Multimek 96 Robot (Beckman Coulter).
(§4) Incubation and analysis. After dosing, the cells in the 96 well plates were returned to the humidified 37° C. incubator. The compounds remained on the cells for 5 days. After 5 days, the cells were fixed to the plates with the addition of 50 μL of 50% (vol/vol) Trichloro Acetic Acid ([…]). The cells were fixed at 4° C. for 1 hour. The plates were washed 5 times in distilled water and allowed to dry. The cells were stained with 0.4% sulforhodamine B (Sigma) in 1% acetic acid. The cells were stained for 15 minutes at room temperature. The plates were then washed 3 times in 1% acetic acid. The plates were dried and the dye was solubilized in 10 mM Tris at pH 8.0. The plates were read on the Absorbence 560 setting on a Victor^2 V Model 1420 Multilabel HTS counter (Perkin Elmer).
(§5) Analysis of Results—IC50 data. Absorbence data was read off of the Victor and was converted to a percentage of the control (untreated) values. IC50 values were graphed and the point at which a 50% inhibition of the control level was determined. […] If the model was not able to determine an IC50, the IC50 was assigned to the lowest concentration that gives a 50% or greater decrease in absorbence compared to control levels. If the calculated IC50 value for a cell line exceeds the top concentration for the assay (typically 50 μg/mL), the assay was scored as >50.
(§6) Selectivity Ratio. The Selectivity Ratio is the ratio of IC50s between the parent cell line and the knock out cell line and is always a positive number and is typically an integer.

Data set [2] relates to securin "knock out" cells F3 (Securin−/−). The data set can be described thus: Growth inhibition of securin knock out cells F3 (SRB, 5 days). The data set is classed as cell-based. The note with it: for IC50: 120 h, securin knock out F3 cells, 5 days, SRB; for Selectivity Ratio F3: IC50 HCT116 / IC50 securin KO F3. How it is done:
as §1, §2, §3, §4, §5, §6

Data set [3] deals with HCT116 cells (Securin+/+, securin parental cell line HCT116 FB). The data set can be described thus: Growth inhibition of securin parental cells (SRB, 5 days). Format: cell-based. The note with it: Homo sapiens, HCT-116, 120 h. On the procedure: as §1, §2, §3, §4, §5
The test system of data set [4] is xenografts of a human breast carcinoma cell line (MDA-MB-361). Kind of data set: In-vivo activity in tumor xenografts. The note with it: days 1 through 20. How it is done:
Selected fused heterobicyclic 2-aryl- or 2-heteroarylthiazolyl compounds of formula I were tested for their activity in a securin parental cell line (HCT116 FB) and a securin knockout (KO) cell line. […] The in-vivo activity of selected fused heterobicyclic 2-arylarylthiazolyl compounds of formula I was studied in cells growing as xenografts in athymic (nude) mice. The effect of Examples 5-7 and 10 was studied in xenografts of a human breast carcinoma cell line (MDA-MB-361).
In-vivo Activity in Tumor Xenografts. The effectiveness of Examples 5-7 versus Vincristine at controlling tumor growth was studied and the results are summarized in Table 2 and FIG. 1. The 2-arylthiazolyl compounds were formulated 0.5% Methocel™ (methylcellulose) and 0.4% Tween 80™ (polysorbate-80 and oleic acid) and administered daily orally (PO), by gavage or intraperiotenially (IP) by syringe. Tumor mass [(length×width^2)/2] was determined every 7 days. Inhibition of tumor growth was calculated relative to conventional (vehicle treated) controls.

For `OC1CNCc2nc(-c3ccc(N4CCCC4)cc3)sc21` [Example 5, (7R,7S)-2-(4-pyrrolidin-1-yl-phenyl)-4,5,6,7-tetrahydro[1,3]thiazolo[4,5-c]pyridin-7-ol], in data set [1], the IC50 is 0.68 µM and the “Selectivity Ratio D8” value came to 34. For the same compound, in data set [2], the half-maximal inhibitory concentration (IC50) came out at 0.93 µM and the “Selectivity Ratio F3” value was found to be 25. The 50% inhibitory concentration (IC50) in data set [3] worked out at 22.8 µM. Moreover, in data set [4] (10 mg/kg/dose PO), the “% T/C Day 7” value amounted to 96%, the “Relative Tumor Growth Day 7” value was 1.59, the “% T/C Day 14” value was found to be 78% and the “Relative Tumor Growth Day 14” value is 3.92. Moreover, in data set [4] (10 mg/kg/dose PO), the “% T/C Day 21” value came to 86% and the “Relative Tumor Growth Day 21” value stood at 7.86.

Take `O[C@@H]1CNCc2nc(-c3ccc(N4CCCC4)cc3)sc21` [Example 6, (7R)-2-(4-pyrrolidin-1-yl-phenyl)-4,5,6,7-tetrahydro[1,3]thiazolo[4,5-c]pyridin-7-ol]: in data set [1], the IC50 worked out at 0.45 µM and the “Selectivity Ratio D8” value is 32. In addition, in data set [2], the concentration for half-maximal inhibition (IC50) was 0.429 µM and the “Selectivity Ratio F3” value amounted to 34. Besides, the IC50 in data set [3] was determined as 14.5 µM. In addition, in data set [4] (5 mg/kg/dose PO), the “S/T = # of Survivors/# of Treated on Day +21 post tumor staging” value was 9/10, the “% T/C Day 7” value was 88%, the “Relative Tumor Growth Day 7” value is reported as 1.46 and the “% T/C Day 14” value stood at 74%. In data set [4] (5 mg/kg/dose PO), the “Relative Tumor Growth Day 14” value is recorded as 3.72, the “% T/C Day 21” value is reported as 71% and the “Relative Tumor Growth Day 21” value was found to be 6.53. Besides, in data set [4] (10 mg/kg/dose PO), the “% T/C Day 7” value was 106%, the “Relative Tumor Growth Day 7” value worked out at 1.76, the “% T/C Day 14” value is 81% and the “Relative Tumor Growth Day 14” value is on record as 4.06. Also, in data set [4] (10 mg/kg/dose PO), the “% T/C Day 21” value was determined as 80% and the “Relative Tumor Growth Day 21” value came to 7.32.

Regarding `O[C@H]1CNCc2nc(-c3ccc(N4CCCC4)cc3)sc21` [Example 7, (7S)-2-(4-pyrrolidin-1-yl-phenyl)-4,5,6,7-tetrahydro[1,3]thiazolo[4,5-c]pyridin-7-ol], in data set [1], the midpoint of inhibition, the IC50, lay at 21.6 µM and the “Selectivity Ratio D8” value stood at 2. Further, in data set [2], the IC50 is 9.67 µM and the “Selectivity Ratio F3” value was determined as 4. In data set [3], the IC50 came out at 36.4 µM. In data set [4] (5 mg/kg/dose PO), the “S/T = # of Survivors/# of Treated on Day +21 post tumor staging” value was 10/10, the “% T/C Day 7” value is 95%, the “Relative Tumor Growth Day 7” value was determined as 1.57 and the “% T/C Day 14” value is on record as 86%. In addition, in data set [4] (5 mg/kg/dose PO), the “Relative Tumor Growth Day 14” value turned out to be 4.30, the “% T/C Day 21” value was 81% and the “Relative Tumor Growth Day 21” value turned out to be 7.45. In data set [4] (10 mg/kg/dose PO), the “% T/C Day 7” value stood at 93%, the “Relative Tumor Growth Day 7” value is on record as 1.54, the “% T/C Day 14” value turned out to be 113% and the “Relative Tumor Growth Day 14” value amounted to 5.64. In addition, in data set [4] (10 mg/kg/dose PO), the “% T/C Day 21” value was found to be 122% and the “Relative Tumor Growth Day 21” value is recorded as 11.17.

On to `CN(C)c1ccc(-c2nc3c(s2)C(O)COC3)cc1Br` (stereo not drawn) [Example 16, 2-[3-bromo-4-(dimethylamino)phenyl]-6,7-dihydro-4H-pyrano[3,4-d][1,3]thiazol-7-ol], for which, in data set [1], the IC50 is 14.3 µM and the “Selectivity Ratio D8” value is given as 3. Besides, in data set [2], inhibition was half-maximal at 15.2 µM (IC50) and the “Selectivity Ratio F3” value is 3. Moreover, the IC50 in data set [3] turned out to be 41.6 µM.

In the case of `CN(C)c1ccc(-c2nc3c(s2)C(O)COC3)cc1` (stereo not drawn) [Example 17, 2-[4-(dimethylamino)phenyl]-6,7-dihydro-4H-pyrano[3,4-d][1,3]thiazol-7-ol], in data set [1], the IC50 is 1.12 µM and the “Selectivity Ratio D8” value turned out to be 46. For the same compound, in data set [2], the IC50 came to 1.53 µM and the “Selectivity Ratio F3” value is listed as 33. Moreover, in data set [3], the IC50 came out at 51.1 µM.

One may read the IC50 as the concentration at which inhibition is half-maximal.
